Reference: EPA's ToxValDB 9.5 (doi:10.2903/j.efsa.2020.6227)

Experiments:
[1] = test system: Bibionidae; conditions: chronic/long-term; duration: 28 days
[2] = test system: Daphnia magna; conditions: chronic/long-term; duration: 21 days
[3] = test system: Anas platyrhynchos; conditions: oral
[4] = test system: Rattus norvegicus
[5] = test system: Folsomia candida; conditions: chronic/long-term; duration: 28 days; reproduction
[6] = test system: Neomysis kadiakensis; conditions: acute; duration: 96 hours; mortality
[7] = test system: Apis mellifera; conditions: acute, duration: 24 hours, mortality
[8] = test system: Oncorhynchus mykiss
[9] = test system: Tagia sp.; conditions: chronic/long-term; duration: 56 days; reproduction

**Q.** What does the source list for `CC[C@H](C)[C@H]1O[C@]2(C=C[C@@H]1C)C[C@@H]1C[C@@H](C/C=C(\C)[C@@H](O[C@H]3C[C@H](OC)[C@@H](O[C@H]4C[C@H](OC)[C@@H](O)[C@H](C)O4)[C@H](C)O3)[C@@H](C)/C=C/C=C3\CO[C@@H]4[C@H](O)C(C)=C[C@@H](C(=O)O1)[C@]34O)O2.CO[C@H]1C[C@H](O[C@H]2[C@H](C)O[C@@H](O[C@@H]3/C(C)=C/C[C@@H]4C[C@@H](C[C@]5(C=C[C@H](C)[C@@H](C(C)C)O5)O4)OC(=O)[C@@H]4C=C(C)[C@@H](O)[C@H]5OC/C(=C\C=C\[C@@H]3C)[C@]54O)C[C@@H]2OC)O[C@@H](C)[C@@H]1O` [Abamectin]?
**A.** NOEC [1]: 3.3 µg/kg; NOEC [2]: 0.0067 µg/L; LD50 ([3]; acute, unspecified, mortality): 26 mg/kg-day; NOEC ([3]; reproductive, feed): 6 mg/kg; LD50 ([4]; acute, oral, M, mortality): 8.7 mg/kg-day; NOAEL ([4]; developmental, development): 0.12 mg/kg-day; NOEC [5]: 0.04 mg/kg; LC50 [6]: 0.02 ng/mL; LD50 ([7]; dermal): 0.001 µg/piece; LD50 ([7]; oral, unspecified): 0.004 µg/piece; LC50 ([8]; acute, duration: 96 hours, mortality): 2.5 ng/mL; NOEC ([8]; chronic/long-term, duration: 72 days): 0.52 µg/L; NOEC [9]: < 0.036 mg/kg
